Results reported in article PMC10077549 (ACS Omega, 2023).
pIC50: −log10 of the molar value.

Molecular target: T1, soybean lipoxygenase LOX-1 (Glycine max, UniProt P08170)
T1 sequence (P08170 1-839): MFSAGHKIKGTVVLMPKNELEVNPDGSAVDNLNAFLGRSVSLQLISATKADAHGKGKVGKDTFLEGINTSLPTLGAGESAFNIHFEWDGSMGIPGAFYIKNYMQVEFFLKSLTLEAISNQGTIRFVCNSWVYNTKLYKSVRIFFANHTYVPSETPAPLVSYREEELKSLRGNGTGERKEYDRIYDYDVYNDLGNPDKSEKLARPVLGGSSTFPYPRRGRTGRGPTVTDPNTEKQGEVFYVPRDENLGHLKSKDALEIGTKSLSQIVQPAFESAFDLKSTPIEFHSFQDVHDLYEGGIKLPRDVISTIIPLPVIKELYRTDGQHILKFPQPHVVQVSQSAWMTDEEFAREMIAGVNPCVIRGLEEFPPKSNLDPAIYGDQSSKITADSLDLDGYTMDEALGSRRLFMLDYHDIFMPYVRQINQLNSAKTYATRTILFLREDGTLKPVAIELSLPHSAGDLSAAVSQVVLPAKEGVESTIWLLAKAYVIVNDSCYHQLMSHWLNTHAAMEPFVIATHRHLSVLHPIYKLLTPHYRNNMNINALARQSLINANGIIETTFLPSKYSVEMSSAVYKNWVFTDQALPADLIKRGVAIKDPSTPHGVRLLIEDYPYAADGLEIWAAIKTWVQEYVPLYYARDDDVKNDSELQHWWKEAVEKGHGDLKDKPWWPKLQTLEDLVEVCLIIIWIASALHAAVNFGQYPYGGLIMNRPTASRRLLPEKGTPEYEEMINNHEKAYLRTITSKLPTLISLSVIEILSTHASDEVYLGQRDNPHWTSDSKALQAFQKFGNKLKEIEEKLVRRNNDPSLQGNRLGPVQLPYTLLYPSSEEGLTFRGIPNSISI
Assay type: biochemical

| pIC50 | SMILES |
| --- | --- |
| 4.65 | NNC(=S)N/N=C/c1ccccc1 [DKI5, (E)-N′-benzylidenehydrazinecarbothiohydrazide] |
| 4.72 | SC1=NC(c2ccccc2)=CC(c2ccccc2)N1 (centres unmarked) [KKII5, 4,6-diphenyl-3,4-dihydropyrimidine-2(1H)-thione] |
